Laboratory results taken from the NIST ThermoML archive (doi:10.1016/j.jct.2017.03.016).

What was measured:
[1] = for surface tension liquid-gas: Maximal bubble pressure; for mass density: 101.33 kPa, Liquid, Vibrating tube method
[2] = refractive index (Na D-line) (dimensionless); settings: 101.33 kPa, Liquid, Standard Abbe refractometry

CCn1cc[n+](CCOC)c1.N#C[N-]C#N [1-ethyl-3-(2-methoxyethyl)imidazolium dicyanamide]
Settings | mass density, [1] [kg/m3] | refractive index, [2] | surface tension liquid-gas, [1] [mN/m]
298.15 K | 1113.6 | 1.5053 | 51
303.15 K | 1110.21 | 1.504 | 50.7
308.15 K | 1106.83 | 1.5028 | 50.4
313.15 K | 1103.48 | 1.5017 | 50.1
318.15 K | 1100.15 | 1.5 | 49.8
323.15 K | 1096.84 | 1.4989 | 49.5
328.15 K | 1093.53 | 1.4977 | 49.3
333.15 K | 1090.26 | 1.496 | 49.1
338.15 K | 1087 | 1.4946 | 48.8
